Measurements from US20130244879A1, “USE OF LIPO-CHITOOLIGOSACCHARIDES TO INITIATE EARLY FLOWERING AND FRUIT DEVELOPMENT IN PLANTS AND RELATED METHODS AND COMPOSITIONS” (NOVOZYMES BIOLOGICALS HOLDING A/S, priority 2003, published 2013).

Experiments:
[1] = system: Red tomato (cv. Mountain Spring); assay: Experiment 15: LCO application on early fruit number and yield, field tomato; assay type: in vivo
Method: Red tomato seedlings (cv. Mountain Spring) were transplanted at their 4-leaf stage. 7 plants in one row were transplanted in each plot of 3.5×2.5M2. The row was covered with 65 cm width black plastic mulch, one week before transplanting. Fertilizer (10-52-10) solution of 250 pprn was applied into the planting hole through the mulch when transplanting (approx. 250 ml/plant). the drip irrigation system was set to twice a week and 4 hours each time, depending on the soil moisture. Plants were sprayed with LCO 15 days after transplant (5 ml/plant) and 29 days after transplant (20 ml/plant). Fruits were first harvested 67 days after transplant.

Cobra tomatoes = assay: Trial 2: LCO dose and timing on greenhouse tomato (Cobra); assay type: in vivo
Method: The Cobra variety was used to re-examine optimal doses of LCO. The concentrations tested were 50 ng and 75 ng LCO per plant, applied once (2 weeks after transplanting) and twice (4 weeks after transplanting). The sample number was increased to 20 plants.

Arabidopsis thaliana = assay: Experiments 3 and 4: effect of LCO on flowering in Arabidopsis thaliana; assay type: in vivo; details: vs surfactant treated plants
Method: Two experiments were performed to investigate effect of LCO on plant's flowering using experimental model plant Arabidopsis thaliana. Plants were treated with various a range of LCO concentrations. […] The LCO treated plants reached over 80% of plants with open flowers 4 days earlier than control, surfactant treated plants. LCO induced faster and more uniform flowering.

soybean (cv. Nortman) = assay: Experiment 18: LCO foliar application on legume (soybean); assay type: in vivo
Method: A short heat-unit variety of soybean (cv. Nortman, HU 2425) was planted at density of plants on the field of approx. 300 plants per plot (500,000 plants/ha). The soybean plants were first treated with LCO at their blooming stage 24 days after planting. The treatment amounts of LCO (detailed above) were diluted with distilled water to give a 2-litre solution sprayed over 4 plots of the treatment. The second application was sprayed at the podding stage 49 days after planting. As before, the LCO was diluted with distilled water to 2-litre solution per 4 plots of the treatment. The plants receiving a single application were sprayed with LCO for the first time, whereas the plants receiving a double application were sprayed for the second time. A CO2 pressure sprayer was employed for this trial. The amount of fluid dispensed by the sprayer was controlled by the nozzle size. It was calibrated with water prior to spraying with LCO. Biomass was examined 58 days after planting by digging out by hand 5 plants per plot. The final yield was obtained by harvesting by combine the intact area (2-meter long to the end) 101 days after planting. The data were analyzed with the SAS program.

greenhouse tomatoes = assay: Experiment 11: LCO foliar application in greenhouse tomatoes; assay type: in vivo, tomato; details: 28 days after transplant
Method: Tomatoes were seeded and transplanted into 10″ pots 30 days later in the greenhouse. Plants were sprayed with 5 ml (50 ng) LCO solution per plant 10 days after transplant and 14 days after transplant (50 ng×2). Flowering data was collected 28 days after transplant. The same plants as FIG. 2-1 were sampled for fruit data 28 days after transplant.

What does the source list for Lipo-chitooligosaccharides [LCO]?
optimal application ([1]; early fruit number and weight): 75 ng/plant; early fruit number and weight ([1]; foliar spray 15 and 29 days after transplant): significantly increased; advance in flowering (attaining same flower number as control) (Cobra tomatoes; 50 ng treatment): ~3 days; advance of equivalent fruit numbers over control (Cobra tomatoes; 50 ng/plant application twice): 2 weeks; Flower Number/Plant (Cobra tomatoes; LCO 50 ng once, April 4): 32.45; Fruit Number/Plant (Cobra tomatoes; LCO 50 ng once, April 4): 1.3 b; Flower Number/Plant (Cobra tomatoes; LCO 50 ng once, Feb. 28): 0.0 b; Flower Number/Plant (Cobra tomatoes; LCO 50 ng once, Mar. 7): 2.5 ab; Flower Number/Plant (Cobra tomatoes; LCO 50 ng once, Mar. 14): 7.4 ab; Fruit Number/Plant (Cobra tomatoes; LCO 50 ng once, Mar. 14): 0.05 b; Flower Number/Plant (Cobra tomatoes; LCO 50 ng once, Mar. 21): 14.55; Fruit Number/Plant (Cobra tomatoes; LCO 50 ng once, Mar. 21): 0.25; Flower Number/Plant (Cobra tomatoes; LCO 50 ng once, Mar. 28): 23.95; Fruit Number/Plant (Cobra tomatoes; LCO 50 ng once, Mar. 28): 0.525 c; Flower Number/Plant (Cobra tomatoes; LCO 50 ng twice, April 4): 32.2; Fruit Number/Plant (Cobra tomatoes; LCO 50 ng twice, April 4): 2.5 a; Flower Number/Plant (Cobra tomatoes; LCO 50 ng twice, Feb. 28): 0.2 a; Flower Number/Plant (Cobra tomatoes; LCO 50 ng twice, Mar. 7): 3.2 a; Flower Number/Plant (Cobra tomatoes; LCO 50 ng twice, Mar. 14): 8.4 a; Fruit Number/Plant (Cobra tomatoes; LCO 50 ng twice, Mar. 14): 0.75 a; Flower Number/Plant (Cobra tomatoes; LCO 50 ng twice, Mar. 21): 16.0; Fruit Number/Plant (Cobra tomatoes; LCO 50 ng twice, Mar. 21): 1.8 a; Flower Number/Plant (Cobra tomatoes; LCO 50 ng twice, Mar. 28): 25.15; Fruit Number/Plant (Cobra tomatoes; LCO 50 ng twice, Mar. 28): 2.025 a; Flower Number/Plant (Cobra tomatoes; LCO 75 ng once, April 4): 28.0; Fruit Number/Plant (Cobra tomatoes; LCO 75 ng once, April 4): 1.45 b; Flower Number/Plant (Cobra tomatoes; LCO 75 ng once, Feb. 28): 0.0 b; Flower Number/Plant (Cobra tomatoes; LCO 75 ng once, Mar. 7): 2.85 ab; Flower Number/Plant (Cobra tomatoes; LCO 75 ng once, Mar. 14): 7.35 ab; Fruit Number/Plant (Cobra tomatoes; LCO 75 ng once, Mar. 14): 0.45 ab; Flower Number/Plant (Cobra tomatoes; LCO 75 ng once, Mar. 21): 14.2; Fruit Number/Plant (Cobra tomatoes; LCO 75 ng once, Mar. 21): 0.9 bc; Flower Number/Plant (Cobra tomatoes; LCO 75 ng once, Mar. 28): 21.4; Fruit Number/Plant (Cobra tomatoes; LCO 75 ng once, Mar. 28): 1.15 bc; Flower Number/Plant (Cobra tomatoes; LCO 75 ng twice, April 4): 31.0; Fruit Number/Plant (Cobra tomatoes; LCO 75 ng twice, April 4): 1.9 ab; Flower Number/Plant (Cobra tomatoes; LCO 75 ng twice, Feb. 28): 0.0 b; Flower Number/Plant (Cobra tomatoes; LCO 75 ng twice, Mar. 7): 3.25 a; Flower Number/Plant (Cobra tomatoes; LCO 75 ng twice, Mar. 14): 7.35 ab; Fruit Number/Plant (Cobra tomatoes; LCO 75 ng twice, Mar. 14): 0.6 ab; Flower Number/Plant (Cobra tomatoes; LCO 75 ng twice, Mar. 21): 15.4; Fruit Number/Plant (Cobra tomatoes; LCO 75 ng twice, Mar. 21): 1.0 b; Flower Number/Plant (Cobra tomatoes; LCO 75 ng twice, Mar. 28): 23.35; Fruit Number/Plant (Cobra tomatoes; LCO 75 ng twice, Mar. 28): 1.325 ab; reached over 80% of plants with open flowers earlier than control (Arabidopsis thaliana): 4 days; Biomass (g/5-plant) (soybean (cv. Nortman); LCO 1 ng, applied once): 49.46 AB g/5-plant; Yield (kg/ha) (soybean (cv. Nortman); LCO 1 ng, applied once): 2563.96 AB kg/ha; Biomass (g/5-plant) (soybean (cv. Nortman); LCO 1 ng, applied twice): 55.10 AB g/5-plant; Yield (kg/ha) (soybean (cv. Nortman); LCO 1 ng, applied twice): 2673.54 AB kg/ha; Biomass (g/5-plant) (soybean (cv. Nortman); LCO 10 ng, applied once): 46.28 AB g/5-plant; Yield (kg/ha) (soybean (cv. Nortman); LCO 10 ng, applied once): 2515.33 B kg/ha; Biomass (g/5-plant) (soybean (cv. Nortman); LCO 10 ng, applied twice): 60.11 A g/5-plant; Yield (kg/ha) (soybean (cv. Nortman); LCO 10 ng, applied twice): 2385.75 B kg/ha; Biomass (g/5-plant) (soybean (cv. Nortman); LCO 100 ng, applied once): 46.87 AB g/5-plant; Yield (kg/ha) (soybean (cv. Nortman); LCO 100 ng, applied once): 2635.00 AB kg/ha; Biomass (g/5-plant) (soybean (cv. Nortman); LCO 100 ng, applied twice): 55.09 AB g/5-plant; Yield (kg/ha) (soybean (cv. Nortman); LCO 100 ng, applied twice): 2974.17 A kg/ha; Biomass (g/5-plant) (soybean (cv. Nortman); LCO 1000 ng, applied once): 47.99 AB g/5-plant; Yield (kg/ha) (soybean (cv. Nortman); LCO 1000 ng, applied once): 2452.71 B kg/ha; Biomass (g/5-plant) (soybean (cv. Nortman); LCO 1000 ng, applied twice): 47.81 AB g/5-plant; Yield (kg/ha) (soybean (cv. Nortman); LCO 1000 ng, applied twice): 2620.42 AB kg/ha; tomato early flowering (greenhouse tomatoes; 50 ng/plant single or double): improved tomato early flowering; increased fruit set (greenhouse tomatoes; single 50 ng LCO application): approx. 1 fruit/plant
